According to patent publication US20260000684A1, “CANNABINOID COMPOSITIONS AGAINST CANCER, THEIR IDENTIFICATION AND PERSONALIZATION OF CANNABIS-BASED CANCER THERAPY” (UNIVERZA V MARIBORU, priority 2022, published 2026):

Assays:
[1] = test system: HCT116; experiment: Cell viability/proliferation; type: cell-based; conditions: FIG. 10, preliminary analysis
From the text: (§1) Example 5: In a preliminary analysis, the inventors investigated the effect of 16 cannabinoid compounds (Δ9-THCV-C3, Δ9-THCVA-C3 A, Δ9-THCA-C5 A, Δ9-THC-C5, Δ8-THC-C5, CBN-C5, CBL-C5, CBLA-C5 A, (E)-CBG-C5, (E)-CBGA-C5 A, CBD-C5, CBDV-C3, CBDVA-C3, CBDA-C5, CBC-C5, and CBCA-C5 A) on cell viability/proliferation in two colorectal carcinoma cell lines (HCT116 and CaCo2) (FIG. 10).

[2] = test system: CaCo2; experiment: Cell viability/proliferation; type: cell-based; conditions: FIG. 10, preliminary analysis
From the text: as §1

[3] = test system: melanoma cell lines (COLO38 and OCM-1); conditions: CB2 and CB1 expressing melanoma cell lines COLO38 and OCM-1; cited from earlier work
[4] = test system: human A375, SK-MEL-28, and CHL-1 melanoma cell lines; conditions: A375, SK-MEL-28, CHL-1; Armstrong et al.; cited from earlier work

| Molecule | effect in reducing cell viability [1] | effect in reducing cell viability [2] | viability [3] | effect of treatment on melanoma cell lines [4] |
| --- | --- | --- | --- | --- |
| CCCCCc1cc(O)c2c(c1)OC(C)(CCC=C(C)C)C=C2 (racemic) [CBC, (±)-cannabichromene] | strongest effect in reducing cell viability | strongest effect in reducing cell viability | – | – |
| CCCCCc1cc(O)c2c(c1)OC(C)(C)[C@@H]1CC=C(C)C[C@@H]21 (relative stereo) [Δ8THC, (−)-Δ^8-trans-(6aR,10aR)-Δ^8-tetrahydrocannabinol] | strongest effect in reducing cell viability | strongest effect in reducing cell viability | – | – |
| CCCCCc1cc(O)c(C/C=C(\C)CCC=C(C)C)c(O)c1 [CBG, cannabigerol] | strongest effect in reducing cell viability | strongest effect in reducing cell viability | – | – |
| CCCCCc1cc(O)c2c(c1)OC(C)(C)c1ccc(C)cc1-2 [CBN, cannabinol] | strongest effect in reducing cell viability | strongest effect in reducing cell viability | – | – |
| Cc1c(C(=O)c2cccc3ccccc23)c2cccc3c2n1[C@H](CN1CCOCC1)CO3 [WIN55,212-2] | – | – | reduce viability in a CB1/CB2-independent manner | – |
| CCCCCc1cc(O)c2c(c1)OC(C)(C)[C@@H]1CCC(C)=C[C@@H]21 [Δ9THC, Δ^9-tetrahydrocannabinol, reference compound] | strongest effect in reducing cell viability | strongest effect in reducing cell viability | – | activation of autophagy, loss of cell viability, and activation of apoptosis |
| (−)-cannabidiol [CBD, reference compound] | strongest effect in reducing cell viability | strongest effect in reducing cell viability | – | – |
